Data: patent publication US20200345049A1, “COMPOSITIONS” (Givaudan, S.A., priority 2017, published 2020)
“Also recorded” adds a separate entry of the source.

Assays:
[1] = system: sweet sensitive taste panel of five experts (trained flavourists); test: Taste evaluation of mogroside V / 11-O-mogroside V solutions in 5% (w/v) sucrose and 0.03% (w/v) citric acid; format: in vivo, human; conditions: compared to mogroside V alone
Text: Mogroside V and 11-O-mogroside V were isolated from extracts of Luo Han Guo using Agilent 1100 preparative HPLC system with a Phenomenex Luna C18 (2) column (5 μm, 210×21.4 mm), and combined to form solutions of various concentrations.
These solutions were combined with a solution containing 5% (w/v) sucrose and 0.03% (w/v) citric acid to give test samples and evaluated by a sweet sensitive taste panel of five experts (trained flavourists).

[2] = Sweetness relative to sucrose; format: in vivo
Protocol: The term “sucrose equivalence” refers to the equivalence in sweetness of a composition containing at least one non-sucrose sweetener to a reference sucrose solution. […] Other non-sucrose sweeteners may then be tasted at a series of dilutions to determine the concentration of the non-sucrose sweetener that is as sweet (i.e. isosweet) to a given sucrose reference. The term “isosweet” refers to compositions that have equivalent sweetness. Typically, the sweetness of a given composition is measured with reference to a solution of sucrose. See “A Systematic Study of Concentration-Response Relationships of Sweeteners,” […]. Walters, […]. Booth, […]. Gibes, B. T. Carr, and L. M. Brands, in Sweeteners: Discovery, Molecular Design and Chemoreception, D. E. Walters, F. T. Orthoefer, and G. E. DuBois, Eds., American Chemical Society, Washington, D.C. (1991), pp 261-276.

SMILES: C[C@H](CC[C@@H](O[C@@H]1O[C@H](CO[C@@H]2O[C@H](CO)[C@@H](O)[C@H](O)[C@H]2O)[C@@H](O)[C@H](O)[C@H]1O[C@@H]1O[C@H](CO)[C@@H](O)[C@H](O)[C@H]1O)C(C)(C)O)[C@H]1CC[C@@]2(C)[C@H]3CC=C4[C@@H](CC[C@H](O[C@@H]5O[C@H](CO[C@@H]6O[C@H](CO)[C@@H](O)[C@H](O)[C@H]6O)[C@@H](O)[C@H](O)[C@H]5O)C4(C)C)[C@]3(C)C(=O)C[C@]12C [11-O-mogroside V, 11-O-Mogroside V]
- Effect of blending 11-O-mogroside V with mogroside V on sweet quality [1]: improves the sweet quality compared to mogroside V alone; also recorded: helped to reduce sweetness lingering (weaken later sweetness taste) and reduce astringent and bitter aftertastes compared to mogroside V alone
- Sweetness relative to sucrose ([2]; Example 2 results): 84 times sweeter than sucrose
- Sweetness relative to sucrose ([2]; description): about 84 times the sweetness of sucrose
